# Measurements reported in ChEMBL document CHEMBL5518224, “Rational Design of PARP1/c-Met Dual Inhibitors for Overcoming PARP1 Inhibitor Resistance Induced by c-Met Overexpression” (J Med Chem, 2024).
# Key:
# [1] = target: Hepatocyte growth factor receptor (Homo sapiens, UniProt P08581); experiment: Inhibition of c-Met (unknown origin)
# [2] = Clearance in male SPF-ICR mouse at 10 mg/kg, ip measured upto 24 hrs by LC-MS/MS analysis; assay type: ADME, organism-based; details: in vivo
# MDA-MB-231 [3] = experiment: Antitumor activity against human MDA-MB-231 cells xenografted in female Balb/c nude mouse assessed as tumor growth inhibition at 50 mg/kg/day, ip qd administered for 28 days relative to control; assay type: functional; details: Mus musculus, MDA-MB-231, 672 h, time 28 day, read-out: TGI
# MDA-MB-231 [4] = experiment: Antitumor activity against human MDA-MB-231 cells xenografted in female Balb/c nude mouse assessed as tumor growth inhibition at 25 mg/kg/day, ip qd administered for 28 days relative to control; assay type: functional; details: MDA-MB-231, 672 h, time 28 day, read-out: TGI
# [5] = Toxicity in female Balb/c nude mouse xenografted with human Olaparib-resistant HCT116 cells assessed as adverse effects at 25 to 100 mg/kg, ip qd administered for 21 days; assay type: organism-based, HCT-116; details: in vivo, 504 h, dose 25-100 mg/kg, time 21 day
# [6] = Toxicity in female Balb/c nude mouse xenografted with human MDA-MB-231 cells assessed as adverse effects at 12.5 to 50 mg/kg, ip qd administered for 28 days; assay type: organism-based; details: in vivo, 672 h, dose 12.5-50 mg/kg, time 28 day
# [7] = system: Olaparib-resistant HCT116; experiment: Antitumor activity against human Olaparib-resistant HCT116 cells xenografted in female Balb/c nude mouse assessed as tumor growth inhibition at 100 mg/kg/day, ip qd administered for 21 days relative to control; assay type: functional; details: Olaparib-resistant HCT116, 504 h, time 21 day, read-out: TGI
# [8] = Toxicity in female Balb/c nude mouse xenografted with human MDA-MB-231 cells assessed as body weight loss at 12.5 to 50 mg/kg, ip qd administered for 28 days; assay type: organism-based; details: in vivo, 672 h, dose 12.5-50 mg/kg, time 28 day
# [9] = system: Olaparib-resistant HCT116; experiment: Antitumor activity against human Olaparib-resistant HCT116 cells xenografted in female Balb/c nude mouse assessed as tumor growth inhibition at 50 mg/kg/day, ip qd administered for 21 days relative to control; assay type: functional; details: Mus musculus, Olaparib-resistant HCT116, 504 h, time 21 day, read-out: TGI
# [10] = Tmax in male SPF-ICR mouse at 10 mg/kg, ip measured upto 24 hrs by LC-MS/MS analysis; assay type: ADME, organism-based; details: in vivo
# [11] = Toxicity in female Balb/c nude mouse xenografted with human Olaparib-resistant HCT116 cells assessed as body weight loss at 25 to 100 mg/kg, ip qd administered for 21 days; assay type: organism-based, HCT-116; details: in vivo, 504 h, dose 25-100 mg/kg, time 21 day
# [12] = system: Olaparib-resistant HCT116; experiment: Antitumor activity against human Olaparib-resistant HCT116 cells xenografted in female Balb/c nude mouse assessed as tumor growth inhibition at 25 mg/kg/day, ip qd administered for 21 days relative to control; assay type: functional; details: Olaparib-resistant HCT116, 504 h, time 21 day, read-out: TGI
# [13] = AUC (0 to t) in male SPF-ICR mouse at 10 mg/kg, ip measured upto 24 hrs by LC-MS/MS analysis; assay type: ADME, organism-based; details: in vivo
# MDA-MB-231 [14] = experiment: Antitumor activity against human MDA-MB-231 cells xenografted in female Balb/c nude mouse assessed as tumor growth inhibition at 12.5 mg/kg/day, ip qd administered for 28 days relative to control; assay type: functional; details: MDA-MB-231, 672 h, time 28 day, read-out: TGI
# [15] = AUC (0 to infinity) in male SPF-ICR mouse at 10 mg/kg, ip measured upto 24 hrs by LC-MS/MS analysis; assay type: ADME, organism-based; details: in vivo
# [16] = MRT (0 to infinity) in male SPF-ICR mouse at 10 mg/kg, ip measured upto 24 hrs by LC-MS/MS analysis; assay type: ADME, organism-based; details: in vivo
# [17] = Cmax in male SPF-ICR mouse at 10 mg/kg, ip measured upto 24 hrs by LC-MS/MS analysis; assay type: ADME, organism-based; details: in vivo
# [18] = MRT (0 to t) in male SPF-ICR mouse at 10 mg/kg, ip measured upto 24 hrs by LC-MS/MS analysis; assay type: ADME, organism-based; details: in vivo
# [19] = system: Olaparib-resistant HCT116; experiment: Antitumor activity against human Olaparib-resistant HCT116 cells xenografted in female Balb/c nude mouse assessed as tumor growth inhibition at 5 mg/kg/day, iv qd administered for 21 days relative to control; assay type: functional; details: Olaparib-resistant HCT116, 504 h, time 21 day, read-out: TGI
# [20] = Half life in male SPF-ICR mouse at 10 mg/kg, ip measured upto 24 hrs by LC-MS/MS analysis; assay type: ADME, organism-based; details: in vivo
# Hepatocyte growth factor receptor, sequence (P08581 whole entry): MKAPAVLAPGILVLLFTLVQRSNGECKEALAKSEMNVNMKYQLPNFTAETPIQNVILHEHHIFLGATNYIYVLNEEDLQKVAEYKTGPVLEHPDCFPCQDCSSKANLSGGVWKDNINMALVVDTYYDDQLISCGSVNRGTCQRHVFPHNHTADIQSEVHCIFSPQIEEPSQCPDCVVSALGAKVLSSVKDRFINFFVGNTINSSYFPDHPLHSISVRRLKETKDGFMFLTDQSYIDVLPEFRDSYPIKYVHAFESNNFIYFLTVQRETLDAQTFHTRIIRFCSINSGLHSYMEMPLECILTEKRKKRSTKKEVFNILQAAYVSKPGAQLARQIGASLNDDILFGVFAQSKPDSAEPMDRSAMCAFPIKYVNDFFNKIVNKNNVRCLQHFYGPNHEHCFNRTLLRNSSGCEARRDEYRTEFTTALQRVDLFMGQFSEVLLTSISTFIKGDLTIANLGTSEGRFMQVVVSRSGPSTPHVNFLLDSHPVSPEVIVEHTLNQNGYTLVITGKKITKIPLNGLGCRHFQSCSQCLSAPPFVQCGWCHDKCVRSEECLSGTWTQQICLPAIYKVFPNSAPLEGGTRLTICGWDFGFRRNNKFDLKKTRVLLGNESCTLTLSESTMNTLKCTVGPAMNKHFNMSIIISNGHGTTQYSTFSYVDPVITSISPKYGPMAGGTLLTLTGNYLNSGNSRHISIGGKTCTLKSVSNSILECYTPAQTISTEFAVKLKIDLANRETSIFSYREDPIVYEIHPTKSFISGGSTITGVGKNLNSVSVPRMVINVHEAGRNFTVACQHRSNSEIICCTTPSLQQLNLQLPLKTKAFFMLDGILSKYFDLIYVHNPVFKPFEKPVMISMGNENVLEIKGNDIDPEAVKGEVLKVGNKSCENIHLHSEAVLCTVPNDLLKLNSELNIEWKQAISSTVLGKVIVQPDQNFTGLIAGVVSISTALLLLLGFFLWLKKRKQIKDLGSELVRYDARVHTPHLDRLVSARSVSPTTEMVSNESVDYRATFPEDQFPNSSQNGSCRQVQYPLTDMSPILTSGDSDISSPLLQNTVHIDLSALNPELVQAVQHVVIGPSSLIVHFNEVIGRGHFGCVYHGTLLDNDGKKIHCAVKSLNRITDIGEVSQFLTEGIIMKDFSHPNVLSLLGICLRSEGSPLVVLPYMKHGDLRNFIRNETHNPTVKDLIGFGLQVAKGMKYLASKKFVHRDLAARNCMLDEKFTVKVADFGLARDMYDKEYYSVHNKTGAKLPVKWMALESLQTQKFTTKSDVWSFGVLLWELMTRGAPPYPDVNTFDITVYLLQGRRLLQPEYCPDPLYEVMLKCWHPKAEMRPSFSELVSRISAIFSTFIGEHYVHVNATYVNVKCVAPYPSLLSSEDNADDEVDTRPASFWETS
SMILES,Ki [1] [nM],CL/F [2] [mL/min/kg],inhibition in vivo at 50 mg/kg/day (MDA-MB-231 [3]) [%],inhibition in vivo at 25 mg/kg/day (MDA-MB-231 [4]) [%],Activity [5],Activity [6],inhibition in vivo at 100 mg/kg/day [7] [%],Activity [8],inhibition in vivo at 50 mg/kg/day [9] [%],Tmax [10] [h],Activity [11],inhibition in vivo at 25 mg/kg/day [12] [%],AUC(0-t) at 24 h [13] [ng·h/mL],inhibition in vivo at 12.5 mg/kg/day (MDA-MB-231 [14]) [%],AUC(0-inf) [15] [ng·h/mL],MRT inf [16] [h],Cmax [17] [ng/mL],MRT last at 24 h [18] [h],inhibition in vivo at 5 mg/kg/day [19] [%],half-life [20] [h]
O=C1NC(=O)[C@@H](c2cn3c4c(cccc24)CCC3)[C@@H]1c1c[nH]c2ccccc12 [TIVANTINIB],335,–,–,–,–,–,–,–,–,–,–,–,–,–,–,–,–,–,–,–
Cl.O=C(c1cc(Cc2n[nH]c(=O)c3ccccc23)ccc1F)N1CCN(c2ccc3c(OCCn4nc(-c5cccnc5)ccc4=O)ccnc3c2)CC1,–,2020,77,60,Non-Toxic,Non-Toxic,70,Non-Toxic,64,0.25,Non-Toxic,62,95.4,49,96.7,1.77,152,1.67,59,1.42
